The conditions of data set [1]: mouse, in vivo. Here is the method:
(§1) AML THP1 cells were inoculated in the flank of SCID mice and 16 days after implantation tumors were measured and animals were randomized at an average tumor volume of around 100 mm^3. Treatment with DHODH Inhibitor BAY2402234 was started at time of randomization. Either daily dosing of 5 mg/kg or 10 mg/kg at a 4 days on/3 days off schedule was used and the drug was given orally in 90/10 PEG400/EtOH formulation. […] The daily dosing sums up to a total weekly dose of 35 mg/kg, while the 4 days on/3 days off schedule sums up to a 40 mg/kg weekly dose.

Data set [2] in a line: Body weight of animals in the HT29 xenograft model (tolerability). It is filed as in vivo, mice. Conditions: for body weight / tolerability: 5 mg/kg p.o. 5 days on/2 days off, course of the experiment. As to the method:
(§2) Tumor cells were injected subcutaneously into the flank of the mice. Treatment was initiated at a predefined tumor size after cell inoculation. BAY 2402234 was applied orally (p.o.) at various dose levels and schedules (daily or intermittent). BAY 2402234 was prepared in solution in PEG400/ETOH 9/1. Animal body weight during the study was monitored at least twice weekly. Subcutaneous tumors were measured with a caliper (length and width) at least twice a week, depending on the doubling time of the tumor. Values are presented as volume. Efficacy was calculated on a specific day according to the formula: T/C (treatment/control ratio)=(mean tumor volume from the treated group/mean tumor volume from the vehicle group). Tumor volume was calculated using (width^2×length)/2.
(§3) Colorectal cancer cells were inoculated in the flank of mice and 9 days after implantation tumors were measured and animals were randomized at an average tumor volume of around 80 mm^3. Treatment with DHODH Inhibitor BAY2402234 was started at time of randomization. Either daily dosing of 5 mg/kg or 10 mg/kg at a 5 days on/2 days off schedule or 5 mg/kg at a 5 days on 2 days off was used and the drug was given orally in 90/10 PEG400/EtOH formulation. The daily dosing sums up to a total weekly dose of 35 mg/kg, while the 5 days on/2 days off schedule sums up to a 50 or a 25 mg/kg weekly dose respectively.

For data set [3], the system named is Mantle cell lymphoma xenograft model Z138. The data set is described as follows: Mantle cell lymphoma Z138 subcutaneous xenograft, tumor volume. It is filed as in vivo, SCID mice. Conditions: start day 20. As to the method:
as §2
Mantle Cell Lymphoma Z138 cells were inoculated in the flank of SCID mice and 20 days after implantation tumors were measured and animals were randomized at an average tumor volume of around 100 mm^3. Treatment with DHODH Inhibitor BAY 2402234 was started at time of randomization. Either daily dosing of 5 mg/kg or 10 mg/kg at a 4 days on/3 days off schedule or 5 mg/kg at a 5 days on 2 days off was used and the drug was given orally in 90/10 PEG400/EtOH formulation. The daily dosing sums up to a total weekly dose of 35 mg/kg, while the 4 days on/3 days off schedule sums up to a 40 mg/kg weekly dose and the 5 days on 2 days off sums up to 25 mg/kg weekly dose.

Data set [4] concerns acute myeloid leukemia xenograft model THP1. The data set is described as follows: AML THP1 subcutaneous xenograft, tumor volume. It is filed as in vivo, SCID mice. Conditions: start day 16, 7 days of treatment. Here is the method: as §2, §1
The test system of data set [5] is colorectal cancer xenograft model HT29. The data set is described as follows: Colorectal cancer HT29 subcutaneous xenograft, tumor volume. It is filed as in vivo, mice. Particulars: start day 9. Here is the method: as §2, §3
For another data set, the system named is solid cancer. Particulars: weekly doses or 5 days on 23 days off schedule, cited from earlier work.
Where [6] appears, read: 5 mg/kg p.o. 5 days on/2 days off (25 mg/kg weekly).
[7] abbreviates: 5 mg/kg p.o. daily (35 mg/kg weekly).
Where [8] appears, read: 10 mg/kg p.o. 4 days on/3 days off (40 mg/kg weekly).

Molecules are shown by their SMILES. “Also recorded” adds a separate entry of the source. Where two headings read alike, the source gives them in different places.

For `CCn1c(CO)nn(-c2cc(O[C@@H](C)C(F)(F)F)c(C(=O)Nc3c(F)cccc3Cl)cc2F)c1=O` [BAY 2402234, N-(2-chloro-6-fluorophenyl)-4-[4-ethyl-3-(hydroxymethyl)-5-oxo-4,5-dihydro-1H-1,2,4-triazol-1-yl]-5-fluoro-2-{[(2S)-1,1,1-trifluoropropan-2-yl]oxy}benzamide], the “dose relative to maximal tolerated dose” value in data set [1] is listed as “close to the maximal tolerated dose”. In addition, the “body weight / tolerability” value in data set [2] is “relative constant bodyweight”; in data set [2] (listed as BAY2402234), “best tolerated”. Moreover, the body weight loss entry in data set [2] (5 mg/kg p.o. daily, at experiments end) is on record as “above 10%”; in data set [2] (10 mg/kg p.o. 5 days on/2 days off, at the end of the experiment), “around 4%”. Further, the “development of tumor volume / efficacy” value in data set [3] (setting [6]) is “shrinkage of the tumors; also recorded: tumor regression”; in data set [3] (setting [7]), “shrinkage of the tumors; also recorded: tumor regression”; in data set [3] (setting [8]), “shrinkage of the tumors; also recorded: tumor regression”; in data set [4] (setting [7]) it was “stable disease”; in data set [4] (setting [8]) it was “stable disease”; in data set [5] (setting [6]), “tumor growth inhibition”. Moreover, the “development of tumor volume / efficacy” value in data set [5] (5 mg/kg p.o. 5 days on/2 days off (25 mg/kg weekly), listed as BAY2402234) is “tumor growth delay”; in data set [5] (setting [7]) it was “tumor growth inhibition”; in data set [5] (5 mg/kg p.o. daily (35 mg/kg weekly), listed as BAY2402234), “tumor growth delay”; in data set [5] (10 mg/kg p.o. 5 days on/2 days off (50 mg/kg weekly)) it was “tumor growth inhibition; also recorded: slightly stronger”; in data set [5] (10 mg/kg p.o. 5 days on/2 days off (50 mg/kg weekly), listed as BAY2402234) it was “tumor growth delay; also recorded: slightly more efficacious”.
In the case of `Cc1c(-c2ccc(-c3ccccc3F)cc2)nc2ccc(F)cc2c1C(=O)O` [Brequinar, 6-fluoro-2-(2′-fluoro-[1,1′-biphenyl]-4-yl)-3-methylquinoline-4-carboxylic acid], the “clinical activity in solid cancer indications” value was “failed to show sufficient clinical activity” with solid cancer and “ineffective” with solid cancer (listed as Brequinar sodium).

The record behind these values is patent US20230301969A1, “DOSING SCHEDULE FOR A METHOD OF TREATMENT WITH DHODH INHIBITORS” (Bayer Aktiengesellschaft, priority 2020, published 2023).
